Legend:
Type in all cases: in vivo
[1] = tested on: Barnyard Grass; experiment: Postemergent activity
Protocol: (§1) Representative compositions of the present invention were evaluated for the postemergence control of species of plants listed in Table A. In these evaluations, pots of the plant species listed in Table A, grown to a height of about 10 cms, were used. Aqueous spray compositions, containing various amounts of 2-[4-(2-fluoro-4-trifluoromethylphenoxy)-phenoxy]propionic acid methy ester, i.e., 125 ppm, 62.5 ppm, 31.25 ppm, 15.6 ppm, 7.8 ppm and 3.9 ppm, respectively, were applied to separate pots. The spray compositions were made by mixing the active ingredient in acetone to 1/2 the final volume, i.e., twice the final concentration. An equal amount of water was added to the active ingredient/acetone mixture wherein the water contained 0.1 percent by weight of TWEEN® 200 surfactant. The application to the plants was made to the point of run-off and was carried out with conventional spraying equipment. Other pots were sprayed with similar compositions containing no toxicant to serve as controls. Thereafter, the pots were maintained under conditions conducive for plant growth. Two weeks after treatment, the pots were examined for plant growth and evaluated on a scale of 0 to 100 where 0 represents no effect and 100 represents complete kill. The results of the examination of the treated pots are set forth below in Table A.
(§2) Substantially the same procedures as those described in Example A were repeated except that the active ingredients were 2-[4-(4-chloro-2-fluorophenoxy)phenoxy]propionic acid; methyl ester and its R-enantiomer and 2-(4-(4-bromo-2-fluorophenoxy)phenoxy propionic acid; methyl ester and its R enantiomer. The results are listed below in Table B.
(§3) In further operations employing the above general procedures and the indicated test compounds the following results were obtained: […]

[2] = tested on: Crabgrass; experiment: Postemergent activity
Protocol: as §1, §2, §3

[3] = tested on: Wheat; experiment: Postemergent activity; conditions: Triticum aestivum, post-emergence, 336 h, read-out: % Control
Protocol: as §1, §2, §3

[4] = tested on: Wild Oats; experiment: Postemergent activity; conditions: Avena fatua, post-emergence, 336 h
Protocol: as §1, §2, §3

[5] = tested on: Foxtail; experiment: Postemergent control of plant species
Protocol: as §1, §3

[6] = tested on: Foxtail; experiment: Postemergent control of plant species; conditions: 250 ppm
[7] = tested on: Yellow Foxtail; experiment: Postemergent activity
Protocol: Representative compositions of the present invention were evaluated for the postemergence control of species of plants listed in Table A. In these evaluations, pots of the plant species listed in Table A, grown to a height of about 10 cms, were used. […] The spray compositions were made by mixing the active ingredient in acetone to 1/2 the final volume, i.e., twice the final concentration. An equal amount of water was added to the active ingredient/acetone mixture wherein the water contained 0.1 percent by weight of TWEEN® 200 surfactant. The application to the plants was made to the point of run-off and was carried out with conventional spraying equipment. […] Thereafter, the pots were maintained under conditions conducive for plant growth.

[8] = tested on: Johnson Grass; experiment: Postemergent activity
Protocol: as §1

[9] = tested on: Barnyard Grass; experiment: Preemergent activity; conditions: Echinochloa crus-galli, pre-emergence, read-out: Preemergence Control
Procedure, shortened: (§4)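 Test compound was applied in acetone mixed with an equal volume of water containing 0.1% Tween-20, sprayed preemergence onto seed beds of sandy loam soil sown with the test species. Beds were kept under identical temperature and light. A solvent-only spray served as control.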

[10] = tested on: Johnson Grass; experiment: Preemergent activity; conditions: Sorghum halepense, pre-emergence, read-out: Preemergence Control
Procedure, shortened: as §4

[11] = tested on: Wheat; experiment: Preemergent activity; conditions: Triticum aestivum, pre-emergence, read-out: Preemergence Control
Procedure, shortened: as §4

[12] = tested on: Wild Oats; experiment: Preemergent activity; conditions: Avena fatua, pre-emergence, read-out: Preemergence Control
Procedure, shortened: as §4

[13] = tested on: Yellow Foxtail; experiment: Preemergent activity; conditions: Setaria, pre-emergence, read-out: Preemergence Control
Procedure, shortened: as §4

In the case of CC(=O)C(C(C)=O)C(=O)C(C)Oc1ccc(Oc2ccc(Br)cc2F)cc1 (stereo not drawn), the “% Control” value ([1]; 7.8 ppm) is reported as 0%, the “% Control” value ([1]; 15.6 ppm) is reported as 0% and the “% Control” value ([1]; 31.2 ppm) is reported as 0%. For the same molecule, the “% Control” value ([1]; 62.5 ppm) was 100%, the “% Control” value ([1]; 125 ppm) was 100% and the “% Control” value ([1]; 250 ppm) was 100%. The “% Control” value ([2]; 7.8 ppm) was 0%, the “% Control” value ([2]; 15.6 ppm) was 70% and the “% Control” value ([2]; 31.2 ppm) was 100%. The “% Control” value ([2]; 62.5 ppm) was 100%, the “% Control” value ([2]; 125 ppm) was 100% and the “% Control” value ([2]; 250 ppm) was 100%. It also gave a plant injury at 7.8 ppm [3] of 0%, a plant injury at 15.6 ppm [3] of 0% and a plant injury at 31.2 ppm [3] of 0%. The pest or weed control at 7.8 ppm ([4]; read-out: % Control) was 0%, the pest or weed control at 15.6 ppm ([4]; read-out: % Control) was 0% and the pest or weed control at 31.2 ppm [4] was 0%. For the same molecule, the pest or weed control at 62.5 ppm ([4]; read-out: % Control) was 0%, the pest or weed control at 125 ppm ([4]; read-out: % Control) was 0% and the pest or weed control at 250 ppm ([4]; read-out: % Control) was 50%. For the same molecule, the “Percent Control” value ([5]; 7.8 ppm) was 0%, the “Percent Control” value ([5]; 15.6 ppm) was 0% and the “Percent Control” value ([5]; 31.2 ppm) was 100%. The “Percent Control” value ([5]; 62.5 ppm) was 100%, the “Percent Control” value ([5]; 125 ppm) was 100% and the “Percent Control” value [6] was 100%.

C=CC(=O)C(C)Oc1ccc(Oc2ccc(Br)cc2F)cc1 (stereo not drawn) was tested, and the “% Control” value ([1]; 7.8 ppm) was 0%, the “% Control” value ([1]; 15.6 ppm) was 0% and the “% Control” value ([1]; 31.2 ppm) was 0%. For the same molecule, the “% Control” value ([1]; 62.5 ppm) was 0%, the “% Control” value ([1]; 125 ppm) was 0% and the “% Control” value ([1]; 250 ppm) was 30%. The “% Control” value ([2]; 7.8 ppm) was 0%, the “% Control” value ([2]; 15.6 ppm) was 0% and the “% Control” value ([2]; 31.2 ppm) was 0%. The “% Control” value ([2]; 62.5 ppm) was 100%, the “% Control” value ([2]; 125 ppm) was 98% and the “% Control” value ([2]; 250 ppm) was 98%. For the same molecule, the plant injury at 7.8 ppm [3] was 0%, the plant injury at 15.6 ppm [3] was 0% and the plant injury at 31.2 ppm [3] was 0%. It also gave a plant injury at 62.5 ppm [3] of 0%, a plant injury at 125 ppm [3] of 0% and a plant injury at 250 ppm ([3]; 250 ppm) of 0%. It also gave a pest or weed control at 7.8 ppm ([4]; read-out: % Control) of 0%, a pest or weed control at 15.6 ppm ([4]; read-out: % Control) of 0% and a pest or weed control at 31.2 ppm [4] of 0%. It also gave a pest or weed control at 62.5 ppm ([4]; read-out: % Control) of 0%, a pest or weed control at 125 ppm ([4]; read-out: % Control) of 0% and a pest or weed control at 250 ppm ([4]; read-out: % Control) of 0%. For the same molecule, the “Percent Control” value ([5]; 7.8 ppm) was 0%, the “Percent Control” value ([5]; 15.6 ppm) was 0% and the “Percent Control” value ([5]; 31.2 ppm) was 0%. For the same molecule, the “Percent Control” value ([5]; 62.5 ppm) was 0%, the “Percent Control” value ([5]; 125 ppm) was 0% and the “Percent Control” value [6] was 100%.

For COC(=O)C(C)Oc1ccc(Oc2ccc(I)cc2F)cc1 (stereo not drawn) [2-(4-(2-fluoro-4-iodophenoxy)phenoxy)propionic acid methyl ester], the “% Control” value ([1]; 15.6 ppm) was 10%, the “% Control” value ([1]; 31.25 ppm) was 85% and the “% Control” value ([1]; 62.5 ppm) was 100%. The “% Control” value ([1]; 125 ppm) was 100%, the “% Control” value ([2]; 15.6 ppm) was 100% and the “% Control” value ([2]; 31.25 ppm) was 100%. For the same molecule, the “% Control” value ([2]; 62.5 ppm) was 100%, the “% Control” value ([2]; 125 ppm) was 100% and the plant injury at 15.6 ppm [3] was 0%. It also gave a plant injury at 31.25 ppm ([3]; 31.25 ppm) of 0%, a plant injury at 62.5 ppm [3] of 0% and a plant injury at 125 ppm [3] of 0%. The pest or weed control at 15.6 ppm ([4]; read-out: % Control) was 0%, the pest or weed control at 31.25 ppm ([4]; 31.25 ppm, read-out: % Control) was 0% and the pest or weed control at 62.5 ppm ([4]; read-out: % Control) was 0%. The pest or weed control at 125 ppm ([4]; read-out: % Control) was 0%, the “% Control” value ([7]; 15.6 ppm) was 90% and the “% Control” value ([7]; 31.25 ppm) was 100%. For the same molecule, the “% Control” value ([7]; 62.5 ppm) was 100%, the “% Control” value ([7]; 125 ppm) was 100% and the “% Control” value ([8]; 15.6 ppm) was 90%. The “% Control” value ([8]; 31.25 ppm) was 100%, the “% Control” value ([8]; 62.5 ppm) was 100% and the “% Control” value ([8]; 125 ppm) was 100%. It also gave a pest or weed control at 140 g/ha ([9]; 0.14 kgs/hectare) of 50%, a pest or weed control at 280 g/ha ([9]; 0.28 kgs/hectare) of 100% and a pest or weed control at 560 g/ha ([9]; 0.56 kgs/hectare) of 97%. It also gave a pest or weed control at 1120 g/ha ([9]; 1.12 kgs/hectare) of 100%, a pest or weed control at 70 g/ha ([10]; 0.07 kgs/hectare) of 0% and a pest or weed control at 140 g/ha ([10]; 0.14 kgs/hectare) of 0%. It also gave a pest or weed control at 280 g/ha ([10]; 0.28 kgs/hectare) of 60%, a pest or weed control at 560 g/ha ([10]; 0.56 kgs/hectare) of 99% and a pest or weed control at 1120 g/ha ([10]; 1.12 kgs/hectare) of 100%. For the same molecule, the plant injury at 70 g/ha ([11]; 0.07 kgs/hectare) was 0%, the plant injury at 140 g/ha ([11]; 0.14 kgs/hectare) was 0% and the plant injury at 280 g/ha ([11]; 0.28 kgs/hectare) was 0%. For the same molecule, the plant injury at 560 g/ha ([11]; 0.56 kgs/hectare) was 20%, the plant injury at 1120 g/ha ([11]; 1.12 kgs/hectare) was 20% and the pest or weed control at 70 g/ha ([12]; 0.07 kgs/hectare) was 0%. The pest or weed control at 140 g/ha ([12]; 0.14 kgs/hectare) was 0%, the pest or weed control at 280 g/ha ([12]; 0.28 kgs/hectare) was 0% and the pest or weed control at 560 g/ha ([12]; 0.56 kgs/hectare) was 95%. For the same molecule, the pest or weed control at 1120 g/ha ([12]; 1.12 kgs/hectare) was 99%, the pest or weed control at 70 g/ha ([13]; 0.07 kgs/hectare) was 0% and the pest or weed control at 140 g/ha ([13]; 0.14 kgs/hectare) was 0%. It also gave a pest or weed control at 280 g/ha ([13]; 0.28 kgs/hectare) of 20%, a pest or weed control at 560 g/ha ([13]; 0.56 kgs/hectare) of 100% and a pest or weed control at 1120 g/ha ([13]; 1.12 kgs/hectare) of 100%.

— patent US4725683A, “Fluorophenoxyphenoxypropionates and derivatives thereof” (The Dow Chemical Company, priority 1985, dated 1988)
